The source of these data is patent publication US9598440B2, “Inhibitors of IRAK4 activity” (MERCK SHARP & DOHME CORP., priority 2012, dated 2017).

Molecules are shown by their SMILES.

For this assay, the target named is IRAK4 (Homo sapiens (Human), UniProt Q9NWZ3). Briefly: Determination of IRAK4 kinase activity (IMAP fluorescence polarization, phosphorylation of fluorescent peptide substrate). The assay is classed as biochemical. The following applies: 0.5 nM GST tagged IRAK4, 100 nM peptide substrate RP7030, 100 μM ATP, 30 minutes at 25° C. The essentials: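 GST-tagged IRAK4 (0.5 nM) phosphorylated 100 nM fluorescent peptide substrate with 100 µM ATP in Tris-HCl pH 7.2, 1 mM MgCl2, 1 mM DTT, 0.01% Tween 20 for 30 min at 25 °C. Phosphorylation read by IMAP nanoparticle binding as fluorescence polarization increase.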
Sequence of IRAK4 (Q9NWZ3 whole entry): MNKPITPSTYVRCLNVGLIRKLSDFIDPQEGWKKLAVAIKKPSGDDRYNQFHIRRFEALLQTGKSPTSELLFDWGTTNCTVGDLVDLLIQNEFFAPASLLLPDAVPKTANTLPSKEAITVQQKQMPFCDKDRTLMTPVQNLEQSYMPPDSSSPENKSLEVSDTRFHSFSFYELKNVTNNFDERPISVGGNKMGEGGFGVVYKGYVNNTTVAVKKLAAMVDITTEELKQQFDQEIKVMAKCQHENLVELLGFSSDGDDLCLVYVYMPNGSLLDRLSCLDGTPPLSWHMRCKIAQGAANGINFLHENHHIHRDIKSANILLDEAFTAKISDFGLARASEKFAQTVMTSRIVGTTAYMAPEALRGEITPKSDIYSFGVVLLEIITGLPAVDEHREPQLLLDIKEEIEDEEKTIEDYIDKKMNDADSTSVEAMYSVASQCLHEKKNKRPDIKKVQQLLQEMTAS
The IC50 is the concentration that inhibits the measured activity by half. In turn, `Nc1cc(N[C@@H]2C[C@H](CO)[C@@H](O)[C@H]2O)c(-c2nc3ccccc3s2)cn1` [Example 152, (1R,2S,3R,5R)-3-((2-amino-5-(benzo[d]thiazol-2-yl)pyridin-4-yl)amino)-5-(hydroxymethyl)cyclopentane-1,2-diol] had an IC50 of 113 nM.
`COc1cc(Nc2ncc(-c3ccc4ccccc4n3)c(N[C@@H]3C[C@H](CO)[C@@H](O)[C@H]3O)n2)ccn1` [Example 58, 6-(((1R,2S,3R,4R)-2,3-dihydroxy-4-(hydroxymethyl)cyclopentyl)amino)-2-((2-methoxypyridin-4-yl)amino)-5-(quinolin-2-yl)pyrimidine] displayed an IC50 of 8 nM.
Regarding `OC[C@H]1C[C@@H](Nc2nc(NC3CCCNC3)ncc2-c2nc3ccccc3s2)[C@H](O)[C@@H]1O` (mixture of isomers) [Example 47, (1R,2S,3R,5R)-3-((5-(benzo[d]thiazol-2-yl)-2-((RS)-piperidin-3-ylamino)pyrimidin-4-yl)amino)-5-(hydroxymethyl)cyclopentane-1,2-diol], the IC50 came out at 3270 nM.
As for `COc1cc(Nc2ncc(-c3nc4ccccc4s3)c(N[C@@H]3CC(C(C)(C)O)[C@@H](O)[C@H]3O)n2)ccn1` (stereo in doubt) [Example 126, 5-(benzo[d]thiazol-2-yl)-6-(((1R,2S,3R,4R)-2,3-dihydroxy-4-(2-hydroxypropane-2-yl)cyclopentyl)amino)-2-((2-methoxypyridin-4-yl)amino)pyrimidine], the figure is 9 nM; as for `OC[C@H]1C[C@@H](Nc2nc(Nc3ccnc(OC4CC4)c3)ncc2-c2ccc3ccccc3n2)[C@H](O)[C@@H]1O` [Example 63, 2-((2-cyclopropoxypyridin-4-yl)amino)-6-(((1R,2S,3R,4R)-2,3-dihydroxy-4-(hydroxymethyl)cyclopentyl)amino)-5-(quinolin-2-yl)pyrimidine], 43 nM.
